The values below come from ChEMBL document CHEMBL1151804, “Antisense-guided isolation and structure elucidation of pannomycin, a substituted cis-decalin from Geomyces pannorum” (2009).

Assay [1] concerns Staphylococcus aureus. In words: Antibacterial activity against Staphylococcus aureus Smith after 20 hrs. It is filed as functional.
In another assay the test system is Enterococcus faecalis. In words: Antibacterial activity against Enterococcus faecalis after 20 hrs. The assay is classed as functional.
A further assay concerns Bacillus subtilis. The assay can be described thus: Antibacterial activity against Bacillus subtilis after 20 hrs. It is filed as functional.
Another assay relates to Streptococcus pneumoniae. In words: Antibacterial activity against Streptococcus pneumoniae up to 1.4 mM after 20 hrs. It is filed as functional, organism-based.
In the next assay the test system is Haemophilus influenzae. In words: Antibacterial activity against Haemophilus influenzae up to 1.4 mM after 20 hrs. The assay is classed as functional, organism-based.
For the next assay, the system named is Escherichia coli. The assay can be described thus: Antibacterial activity against Escherichia coli up to 1.4 mM after 20 hrs. It is filed as functional, organism-based.
The next assay concerns Candida albicans. In words: Antifungal activity against Candida albicans up to 1.4 mM after 24 hrs. The assay is classed as functional, organism-based.
The subject of assay [2] is Staphylococcus aureus. The assay can be described thus: Antibacterial activity against methicillin-resistant Staphylococcus aureus after 20 hrs. It is filed as functional.

Structures are written as SMILES. In brackets after ≈: the same amount, converted by molar mass. Activity calls are given as the source filed them.

Consider `C/C=C/[C@H]1C(C)=C[C@H]2C[C@H](C)[C@H](O)C[C@H]2[C@]1(C)/C=C(C)/C=C/C(=O)O` [PANNOMYCIN], for which the figures for the MIC in the assay on Staphylococcus aureus [1], against Enterococcus faecalis and with Bacillus subtilis were 1400 µM (≈ 482 µg/mL), 1400 µM (≈ 482 µg/mL) and 400 µM (≈ 138 µg/mL), respectively. Besides, the outcome in the assay on Streptococcus pneumoniae, in the assay with Haemophilus influenzae, in the assay with Escherichia coli and with Candida albicans was inactive.
`C/C=C/[C@@H]1C=C[C@@H]2C[C@@H](C)CC[C@@H]2[C@]1(C)C(=O)C1=C(O)C(C(C)O)N(C)C1=O` (some centres undefined) [CISSETIN]: in the assay with Staphylococcus aureus [2], the MIC worked out at 10 µM (≈ 3.88 µg/mL). That is a double-digit micromolar value.
With `C/C=C/[C@@H]1C(C)=C[C@@H]2CC[C@@H](C)C[C@@H]2[C@]1(C)C(=O)C1=C(O)C(CO)N(C)C1=O` (some centres undefined), in the assay on Staphylococcus aureus [2], the MIC worked out at 12 µM (≈ 4.65 µg/mL).

The MIC is the smallest concentration in the dilution series that meets the test's criterion for growth inhibition.
